{
  "source": "paper PMC10454575",
  "about": "“A Novel Aniline Derivative from Peganum harmala L. Promoted Apoptosis via Activating PI3K/AKT/mTOR-Mediated Autophagy in Non-Small Cell Lung Cancer Cells” (International Journal of Molecular Sciences, 2023)",
  "target": "T1, CD133 (Homo sapiens, UniProt O43490)",
  "T1 construct": "gene PROM1",
  "T1 sequence (O43490 20-865)": "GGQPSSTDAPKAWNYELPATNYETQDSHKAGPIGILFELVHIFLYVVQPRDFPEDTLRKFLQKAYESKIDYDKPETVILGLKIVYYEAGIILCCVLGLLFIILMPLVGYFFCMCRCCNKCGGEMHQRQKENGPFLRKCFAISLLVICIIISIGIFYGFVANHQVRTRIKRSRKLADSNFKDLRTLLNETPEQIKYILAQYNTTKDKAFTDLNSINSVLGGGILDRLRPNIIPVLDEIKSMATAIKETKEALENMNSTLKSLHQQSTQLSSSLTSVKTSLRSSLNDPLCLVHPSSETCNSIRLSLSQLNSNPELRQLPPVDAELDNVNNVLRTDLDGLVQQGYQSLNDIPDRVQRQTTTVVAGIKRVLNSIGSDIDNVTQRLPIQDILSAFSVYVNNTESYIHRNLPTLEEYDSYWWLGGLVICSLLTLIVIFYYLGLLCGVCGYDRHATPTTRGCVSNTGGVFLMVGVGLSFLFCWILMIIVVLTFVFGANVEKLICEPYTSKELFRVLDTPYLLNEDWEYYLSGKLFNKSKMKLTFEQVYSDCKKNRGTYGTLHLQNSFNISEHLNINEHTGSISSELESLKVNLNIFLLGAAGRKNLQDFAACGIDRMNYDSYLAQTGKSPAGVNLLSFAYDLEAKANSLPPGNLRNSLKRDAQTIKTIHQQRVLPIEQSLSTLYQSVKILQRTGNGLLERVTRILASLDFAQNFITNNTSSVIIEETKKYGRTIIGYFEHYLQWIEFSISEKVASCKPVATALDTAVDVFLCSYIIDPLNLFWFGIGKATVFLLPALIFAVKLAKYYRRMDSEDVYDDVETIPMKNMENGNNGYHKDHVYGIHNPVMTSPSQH",
  "assay": "surface plasmon resonance (SPR), single-site fit, […] PA",
  "assay_type": "binding",
  "data": [
    {"smiles": "COc1ccc(C(=O)CCNC(C)=O)c(N)c1", "note": "[PA, pegaharoline A]", "values": [
      {"measurement": "Kd", "value": 7.25, "unit": "µM"}
    ]}
  ]
}
